Key:
Digitaria ciliaris = assay: Field soil treatment test (Test Example 2); type: in vivo; settings: soil spray after seeding, wettable powder, active ingredient 10 g/a, 21st day from the treatment
Method: (§1) The herbicidal effect was evaluated in terms of herbicidal rate obtained from the following equation: Herbicidal rate (%)=[1−(Weight of weeds above the ground in a treated plot)/(Weight of weeds above the ground in a non-treated plot)]×100 and was expressed by herbicidal index according to the following criteria. [table] Alluvial soil from a field was put in a resin-made vat having an area of 200 cm^2. After fertilization, the seeds of Digitaria ciliaris, Chenopodium album and Polygonum lapathifolium were cast on the soil and uniformly covered with the soil. The wettable powder obtained in Formulation Example 1 was diluted with water and a predetermined amount thereof was sprayed uniformly to the soil by means of a small-sized power pressure spray so as to give 10 g of the active ingredient per an are. Thereafter, cultivation was further continued in the greenhouse, and the herbicidal effect was examined on the 21st day from the treatment. The results obtained are shown in Table 8 (the compound numbers in Table 8 correspond to those in Tables 1 to 6).

Chenopodium album = assay: Field soil treatment test (Test Example 2); type: in vivo; settings: soil spray after seeding, wettable powder, active ingredient 10 g/a, 21st day from the treatment
Method: as §1

Polygonum lapathifolium = assay: Field soil treatment test (Test Example 2); type: in vivo; settings: soil spray after seeding, wettable powder, active ingredient 10 g/a, 21st day from the treatment
Method: as §1

Row | melting point | SMILES | Herbicidal effect Digitaria ciliaris (herbicidal index) (Digitaria ciliaris) | Herbicidal effect Chenopodium album (herbicidal index) (Chenopodium album) | Herbicidal effect Polygonum lapathifolium (herbicidal index) (Polygonum lapathifolium)
1 |  | Cc1cc2c(-c3cccc(C(F)(F)F)c3)nc(OC(C)(C)C)nc2s1 [6-27] | 5 (91 to 100) | 5 (91 to 100) | 4 (71 to 90)
2 |  | Cc1cc2c(-c3ccc(F)c(C(F)(F)F)c3)nc(OC(C)C)nc2s1 [6-30] | 5 (91 to 100) | 5 (91 to 100) | 5 (91 to 100)
3 |  | Cc1cc2c(-c3cccc(OC(F)(F)F)c3)nc(OC(C)C)nc2s1 [6-36] | 5 (91 to 100) | 5 (91 to 100) | 5 (91 to 100)
4 |  | CCOc1nc(-c2ccccc2C(F)(F)F)c2cc(C)sc2n1 [6-43] | 5 (91 to 100) | 5 (91 to 100) | 2 (31 to 50)
5 |  | C=CCOc1nc(-c2cccc(C(F)(F)F)c2)c2cc(C)sc2n1 [6-88] | 5 (91 to 100) | 5 (91 to 100) | 5 (91 to 100)
6 |  | Cc1cc2c(-c3cccc(C(F)(F)F)c3)nc(OC(C)C(F)(F)F)nc2s1 (stereo not shown) [6-100] | 5 (91 to 100) | 5 (91 to 100) | 5 (91 to 100)
7 |  | Cc1cc2c(-c3cccc(C(F)(F)F)c3)nc(OCC(F)(F)C(F)(F)F)nc2s1 [6-101] | 5 (91 to 100) | 5 (91 to 100) | 4 (71 to 90)
8 |  | Cc1cc2c(-c3cccc(C(F)(F)F)c3)nc(OCC(F)(F)C(F)F)nc2s1 [6-103] | 5 (91 to 100) | 5 (91 to 100) | 5 (91 to 100)
9 |  | Cc1cc2c(-c3cccc(OC(F)(F)F)c3)nc(OCCF)nc2s1 [6-107] | 5 (91 to 100) | 5 (91 to 100) | 5 (91 to 100)
10 |  | Cc1cc2c(-c3cccc(OC(F)(F)F)c3)nc(OCC(F)(F)F)nc2s1 [6-108] | 5 (91 to 100) | 5 (91 to 100) | 5 (91 to 100)
11 |  | Cc1cc2c(-c3cccc(OC(F)(F)F)c3)nc(OC(C)C(F)(F)F)nc2s1 (stereo not shown) [6-110] | 5 (91 to 100) | 5 (91 to 100) | 5 (91 to 100)
12 |  | Cc1cc2c(-c3cccc(OC(F)(F)F)c3)nc(OCC(F)(F)C(F)(F)F)nc2s1 [6-111] | 5 (91 to 100) | 5 (91 to 100) | 5 (91 to 100)
13 |  | Cc1cc2c(-c3cccc(SC(F)(F)F)c3)nc(OCC(F)(F)C(F)F)nc2s1 [6-119] | 5 (91 to 100) | 5 (91 to 100) | 5 (91 to 100)
14 |  | Cc1cc2c(-c3cccc(OC(F)F)c3)nc(OCC(F)(F)F)nc2s1 [6-121] | 5 (91 to 100) | 5 (91 to 100) | 5 (91 to 100)
15 |  | Cc1cc2c(-c3cccc(OC(F)F)c3)nc(OCC(F)F)nc2s1 [6-122] | 5 (91 to 100) | 5 (91 to 100) | 5 (91 to 100)
16 |  | Cc1cc2c(-c3cccc(C(F)(F)F)c3)nc(OS(C)(=O)=O)nc2s1 [6-148] | 5 (91 to 100) | 5 (91 to 100) | 4 (71 to 90)
17 |  | Cc1cc2c(-c3cccc(C(F)(F)F)c3)nc(-n3cccc3)nc2s1 [6-189] | 5 (91 to 100) | 4 (71 to 90) | 3 (51 to 70)
18 |  | Cc1cc2c(-c3cccc(C(F)(F)F)c3)nc(-n3ccc(C(F)(F)F)n3)nc2s1 [6-198] | 5 (91 to 100) | 5 (91 to 100) | 5 (91 to 100)
19 |  | Cc1cc2c(-c3cccc(OC(F)(F)F)c3)nc(-n3ccc(C(F)(F)F)n3)nc2s1 [6-199] | 5 (91 to 100) | 5 (91 to 100) | 5 (91 to 100)
20 | 251 to 253 °C (dec.) | Cc1cc2c(-c3cccc(C(F)(F)F)c3)nc(O)nc2s1 [Compound No. 4-3, 6-methyl-4-[3-(trifluoromethyl)phenyl]thieno[2,3-d]pyrimidine-2-ol] |  |  | 
21 | > 300 °C | Cc1cc2c(-c3cccnc3Cl)nc(O)nc2s1 [Compound No. 4-22, 4-(2-chloropyridine-3-yl)-6-methylthieno[2,3-d]pyrimidine-2-ol] |  |  | 
22 | 108 °C | Cc1cc2c(-c3cccc(C(F)(F)F)c3)nc(Cl)nc2s1 [Compound No. 5-4, 2-chloro-6-methyl-4-[3-(trifluoromethyl)phenyl]thieno[2,3-d]pyrimidine] |  |  | 
23 | 127 °C | Cc1cc2c(-c3sccc3C)nc(Cl)nc2s1 [Compound No. 5-22, 2-chloro-6-methyl-4-(3-methylthiophen-2-yl)thieno[2,3-d]pyrimidine] |  |  | 
24 | 204 to 206 °C (dec.) | Cc1cc2c(-c3sc(C=O)cc3C)nc(Cl)nc2s1 [Compound No. 5-23, 2-chloro-4-(5-formyl-3-methylthiophen-2-yl)-6-methylthieno[2,3-d]pyrimidine] |  |  | 
25 | 174 to 176 °C (dec.) | Cc1cc2nc(Cl)nc(-c3cccc(C(F)(F)F)c3)c2s1 [Compound No. 5-34, 2-chloro-6-methyl-4-[3-(trifluoromethyl)phenyl]thieno[3,2-d]pyrimidine] |  |  | 
26 | 70 to 72 °C | Cc1cc2c(-c3cccc(C(F)(F)F)c3)ncnc2s1 [Compound No. 6-9, 6-methyl-4-[3-(trifluoromethyl)phenyl]thieno[2,3-d]pyrimidine] |  |  | 
27 | 233 °C | CNc1nc(-c2ccc(C(F)(F)F)cc2)c2cc(C)sc2n1 [Compound No. 6-168, 6-methyl-2-(methylamino)-4-[4-(trifluoromethyl)phenyl]thieno[2,3-d]pyrimidine] |  |  | 
28 | 113 °C | CSc1nc(-c2ccc(C(F)(F)F)cc2)c2cc(C)sc2n1 [Compound No. 6-171, 6-methyl-2-methylthio-4-[4-(trifluoromethyl)phenyl]thieno[2,3-d]pyrimidine] |  |  | 
29 | 226 to 227 °C (dec.) | Cc1cc2c(-c3cccc(C(F)(F)F)c3)nc(C(=O)O)nc2s1 [Compound No. 6-180, 6-methyl-4-[3-(trifluoromethyl)phenyl]thieno[2,3-d]pyrimidine-2-carboxylic acid] |  |  | 

— US20070010402A1, “Novel herbicides, usage thereof, novel thienopyrimidine derivatives, intermediates of the same, and process for production thereof” (NIHON NOHYAKU CO., LTD.,, priority 2002, published 2007)
